Test results reported in patent publication US20070225171A1 (priority 2001, published 2007).

Key:
[1] = test system: SAD2 - Cultivar UC82B genetically engineered to express a synthetic gene for tolerance to phenoxy herbicides; assay: Fruit yield assay, 2,4-D sprayed on transgenic SAD2 tomato; type: in vivo, Lycopersicon esculentum; conditions: for Total Yield (Fresh Fruit Yield) / Fruit Weight (Average Fresh Fruit Weight) / Total Flowers / Fruit per Plant / Total Fruit No.: SAD2 tomato; for Total Yield (Fresh Fruit Yield): harvested over 60 days; for Fruit Weight (Average Fresh Fruit Weight) / Total Flowers / Fruit per Plant / Total Fruit No.: 60 days; for Total Flowers: Flower Number/plant/replication/treatment; for Fruit per Plant: Fruit Number/plant/replication/treatment; for Total Fruit No.: Total Fruit Number/replication/treatment
Source text: The use of exogenously supplied synthetic auxins on agronomic crops to elicit direct non-herbicidal effects was further assessed using genetically-engineered tomato plant lines expressing a synthetic auxin metabolizing gene, and non-genetically-engineered controls. Tomato was utilized to model fruit retention (fruit set) and fruit yield. The transgenic tomato line was utilized in the T2 generation with the transgene fixed in a homozygous fashion. The tomato genotype UC82L was utilized as the control, as well as the background for tranformation with the pPZP211-PNPT-311-SAD2 binary plasmid. This genotype was chosen because it is more likely to closely approximate the behavior of field-grown tomatoes than some short-life-cycle laboratory strains of tomato.
In the same manner as for tobacco, the research was conducted in a single phase entailing characterization of response variables when plants were subjected to the maximum (1× rate=1 pound/acre of active ingredient) and low (¼×=4 ounces/acre of active ingredient) rates of exogenously applied 2,4-D. The overall experimental design was comprised of three parallel completely randomized designs with spray rate and genotype as the main factors. Three replications were performed for each treatment within each experiment. Each replication was the average of three plants that were harvested over a period of 60 days. Fruit number, fruit weight and flower number were measured directly, with average fruit weight and average fruit per plant being derived by dividing fruit weight and fruit number within a replication by the number of plants (3). Tomato fruit yield was measured on fresh fruit and recorded in grams.
The binary plasmid pPZP211-PNPT-311-SAD2 used for transformation was the same as that used in Example 1, and tomato (Lycopersicon esculentum) cultivar UC82B (a cultivar nearly identical to UC82L) was transformed by Agrobacterium-mediated transformation of leaf tissue with the binary plasmid as described in Example 1. Transgenic plants were produced from the transformed leaf tissue as described in Example 1.
Non-transgenic and transgenic seed were germinated and grown as described in Example 1 for tobacco. The transgenic tomato line was utilized in the T2 generation with the transgene fixed in a homozygous fashion.
The plants with 4 fully-extended leaves retained were sprayed as described in Example 1. Each replication (3 plants) was sprayed independently and permitted to dry before being moved back to the greenhouse for further growth for 60 days.
Fruit number, fruit weight, and flower number were measured directly during this 60-day period. Tomato fruit yield was measured on fresh fruit and recorded in grams.

[2] = test system: tobacco dark fired cultivar KY 160 (non-GE control); assay: Yield assay, 2,4-D sprayed on non-transgenic tobacco; type: in vivo, Nicotiana tabacum; conditions: isooctyl ester formulation; for Plant Yield / Corrected Leaf Yield / Corrected Plant Yield / Leaf Yield: dry matter 21 days after spraying; for Percent Leaf Yield: 21 days after spraying
Experimental: (§1) The use of exogenously supplied synthetic auxins on agronomic crops to elicit direct non-herbicidal effects, with an emphasis on the potential enhancement of yield, was assessed using genetically-engineered (GE) tobacco plant lines expressing synthetic auxin metabolizing genes. Non-GE controls were used, permitting separation of the herbicidal and biological properties of the exogenously supplied synthetic auxins. Tobacco was utilized to model dry matter yield.
(§2) The research was conducted in a single phase entailing characterization of response variables when plants were subjected to maximum (1× rate=1 pound/acre of active ingredient) and low (¼×=4 ounces/acre of active ingredient) rates of exogenously applied 2,4-dichlorophenoxyacetic acid (2,4-D). GE lines of tobacco (dark fired cultivar “KY 160”) expressing a synthetic gene for auxin metabolism (SAD1 or SAD2) were used, along with non-GE lines of the same genotype as control material. Commercial tobacco production has long utilized decapitation (“topping”) to initiate a predictable increase in leaf weight, thickness, and dry matter yield. This yield increase is dependent upon variables, such as genotype and fertility. By utilizing controls of the same genotype and a fixed level of fertility, significant yield variation responses should be attributable to the treatment (exogenous auxin herbicide application).
(§3) The overall experimental design was comprised of three parallel completely randomized designs with spray rate and genotype as the main factors. Three replications were performed for each treatment within each experiment. Each replication was the average measurement of six plants. The tobacco lines were allowed to advance to the 6-8 leaf stage. Upon reaching this stage, the primary meristem was removed along with lower leaves so that only 4 leaves remained. Plants were then sprayed with herbicide and permitted to grow for an additional 21 days. At the end of this period, dry matter yields for both leaf and the whole plant were measured.
(§4) Yield data recorded for tobacco were leaf dry matter, leaf number, and total dry matter. Corrected plant yield and corrected leaf yield were calculated for each replication as the leaf dry matter divided by leaf number then multiplied by the expected number of leaves (6 plants×4 leaves=24). This corrected leaf yield was then added to stem yield fraction (arrived at by subtracting actual leaf yield from total plant yield) to create a corrected total plant yield. All tobacco yield measurements were recorded in grams after a 7-day drying period in ambient air dryers.
(§5) Seed of non-transgenic tobacco lines were germinated on MS03 (MS salts, B5 vitamins, 3% sucrose) medium. Transgenic seeds were germinated on the same medium augmented with 300 mg/L kanamycin monosulfate to allow detection of any seedlings failing to carry the transgene. Thirty days after germination, seedlings were transplanted to the greenhouse into flats holding 8 trays of 6 plants each for a total of 48 plants. Plants were permitted to grow for approximately 45 days, at which time 6-8 leaves had developed. Prior to spraying, the top of the plant retaining the uppermost two leaves was removed (decapitated) resulting in the retention of 4 fully-extended leaves for each plant.
(§6) For spray assays and for the yield studies, spraying was performed in an Allen Machine Works Spray Cabinet. Spray rates were established as the equivalent of 16 ounces of active ingredient per acre (1× rate), 4 ounces active ingredient/acre (¼× rate), and the control (no active ingredient per acre or 0×). The herbicide used was 2,4-D, isooctyl ester formulation (3.9 pounds of active ingredient/gallon) at equivalent rates noted above. To achieve this equivalent 1× field rate, 500 microliters of herbicide were diluted into a total volume of 50 ml. The ¼× field rate was achieved by diluting 125 microliters of herbicide in a 50 ml volume. […]

[3] = test system: SAD1 - Cultivar KY 160 genetically engineered to express a synthetic gene for tolerance to phenoxy herbicides; assay: Yield assay, 2,4-D sprayed on transgenic SAD1 tobacco; type: in vivo, Nicotiana tabacum; conditions: for Plant Yield / Percent Leaf Yield / Corrected Leaf Yield / Corrected Plant Yield / Leaf Yield: SAD1 tobacco, isooctyl ester formulation; for Plant Yield / Corrected Leaf Yield / Corrected Plant Yield / Leaf Yield: dry matter 21 days after spraying; for Percent Leaf Yield: 21 days after spraying
Experimental: as §1, §2, §3, §4, §5, §6

[4] = 2,4-D rate 1X (1 pound active ingredient/acre)
[5] = 2,4-D rate ¼X (4 ounces active ingredient/acre)

Question: Which “Total Yield (Fresh Fruit Yield)” value ([1]; spray rate 1X (1 pound active ingredient/acre), 2,4-D isooctyl ester formulation) does the source give for O=C(O)COc1ccc(Cl)cc1Cl [2,4-D, 2,4-dichlorophenoxyacetic acid] here?
Answer: 131.9 grams/plant/replication/treatmen

Question: What about the “Fruit Weight (Average Fresh Fruit Weight)” value ([1]; spray rate 1X) of the same molecule?
Answer: 13.7 grams/fruit/plant/replication/treatment

Question: What about the “Total Flowers” value ([1]; spray rate 1X) of the same molecule?
Answer: 19.7

Question: What about the “Fruit per Plant” value ([1]; spray rate 1X) of the same molecule?
Answer: 2.4

Question: And the “Total Fruit No.” value ([1]; spray rate 1X)?
Answer: 9.7

Question: And the “Total Yield (Fresh Fruit Yield)” value ([1]; spray rate ¼X (4 ounces active ingredient/acre), 2,4-D isooctyl ester formulation)?
Answer: 122.9 grams/plant/replication/treatmen

Question: And the “Fruit Weight (Average Fresh Fruit Weight)” value ([1]; spray rate ¼X)?
Answer: 14.4 grams/fruit/plant/replication/treatment

Question: What about the “Total Flowers” value ([1]; spray rate ¼X) of the same molecule?
Answer: 17.3

Question: And the “Fruit per Plant” value ([1]; spray rate ¼X)?
Answer: 2.2

Question: And the “Total Fruit No.” value ([1]; spray rate ¼X)?
Answer: 8.7

Question: And the “effect on average fruit weight” value ([1]; transgenic line, ¼× rate)?
Answer: increase in average fruit weight

Question: What about the “effect on total flower number” value ([1]; transgenic lines, ¼× rate) of the same molecule?
Answer: increasing the number of flowers

Question: And the “Plant Yield” value [2, 4]?
Answer: 27.7 grams/plant/replication/treatment

Question: What about the “Percent Leaf Yield” value ([2]; 2,4-D rate 1X) of the same molecule?
Answer: 33.2%

Question: And the “Corrected Leaf Yield” value ([2]; 2,4-D rate 1X)?
Answer: 9.4 grams/plant/replication/treatment

Question: And the “Corrected Plant Yield” value ([2]; 2,4-D rate 1X)?
Answer: 28.2 grams/plant/replication/treatment

Question: What about the “Leaf Yield” value ([2]; 2,4-D rate 1X) of the same molecule?
Answer: 9.0 grams/plant/replication/treatment

Question: What about the “Plant Yield” value [2, 5] of the same molecule?
Answer: 33.1 grams/plant/replication/treatment

Question: What about the “Percent Leaf Yield” value ([2]; 2,4-D rate ¼X) of the same molecule?
Answer: 35.2%

Question: What about the “Corrected Leaf Yield” value ([2]; 2,4-D rate ¼X) of the same molecule?
Answer: 12.2 grams/plant/replication/treatment

Question: What about the “Corrected Plant Yield” value ([2]; 2,4-D rate ¼X) of the same molecule?
Answer: 34.3 grams/plant/replication/treatment

Question: And the “Leaf Yield” value ([2]; 2,4-D rate ¼X)?
Answer: 11.0 grams/plant/replication/treatment

Question: What about the “Plant Yield” value [3, 4] of the same molecule?
Answer: 42.5 grams/plant/replication/treatment

Question: What about the “Percent Leaf Yield” value ([3]; 2,4-D rate 1X) of the same molecule?
Answer: 44.7%

Question: What about the “Corrected Leaf Yield” value ([3]; 2,4-D rate 1X) of the same molecule?
Answer: 19.1 grams/plant/replication/treatment

Question: And the “Corrected Plant Yield” value ([3]; 2,4-D rate 1X)?
Answer: 42.7 grams/plant/replication/treatment

Question: What about the “Leaf Yield” value ([3]; 2,4-D rate 1X) of the same molecule?
Answer: 18.8 grams/plant/replication/treatment

Question: What about the “Plant Yield” value [3, 5] of the same molecule?
Answer: 43.5 grams/plant/replication/treatment

Question: What about the “Percent Leaf Yield” value ([3]; 2,4-D rate ¼X) of the same molecule?
Answer: 40.5%

Question: And the “Corrected Leaf Yield” value ([3]; 2,4-D rate ¼X)?
Answer: 17.8 grams/plant/replication/treatment

Question: And the “Corrected Plant Yield” value ([3]; 2,4-D rate ¼X)?
Answer: 43.9 grams/plant/replication/treatment

Question: What about the “Leaf Yield” value ([3]; 2,4-D rate ¼X) of the same molecule?
Answer: 17.4 grams/plant/replication/treatment

Question: What about the “effect on yield” value ([3]; transgenic material (SAD1) sprayed with either the ¼× or 1× rate) of the same molecule?
Answer: significant increase in yield
